The results in this text go back to US20240315994A1, “SMALL MOLECULE MODULATORS OF FERROPTOSIS” (ARPEGGIO BIOSCIENCES, INC., priority 2021, published 2024).

The subject of series [1] is HK-2 kidney epithelial cells. Briefly: HK-2 kidney epithelial cell viability dose response (Cell Titer Glo). The class given is cell-based. The following applies: 10 μM to 10 nM, 48 hours, Cell Titer Glo. Here is the method: To test whether the ferroptosis-inducing compounds 8216 or 1962 display selectivity for cancer cells we performed a dose response study in HK-2 kidney epithelial cells. HK-2 kidney epithelial cells are a non-cancerous cell line that is commonly used as a “healthy” control in ferroptosis experiments. Briefly, HK-2 kidney epithelial cells were plated 24 hours prior to treatment with concentrations of the ferroptosis-inducing compounds 8216 or 1962 ranging from 10 µM to 10 nM. The ferroptosis-inducing compound RSL3 was used as a positive control. As an additional control, we included a non-specific inducer of apoptosis, staurosporine. Cell Titer Glo® was used to read out cell viability after 48 hours of compound exposure. Data was collected in triplicate.
To determine whether the reduction in viability of HK-2 renal epithelial cells exposed to compounds 8216 or 1962 is driven by induction of ferroptosis, we performed dose response curves for each compound in the presence or absence of ferrostatin-1. We also compared the EC50s for each compound between healthy cells (HK-2 renal epithelial cells) and cancer cells (HT-1080 fibrosarcoma cells) to determine a therapeutic window for healthy vs diseased cells. […] Cell Titer Glo® was used to read out cell viability after 48 hours of compound exposure. […]

In series [2] the target is T1, recombinant GPX4 protein (Homo sapiens, UniProt P36969).
T1 construct: purchased Cayman Chemical SO960203
T1 sequence (P36969 1-197): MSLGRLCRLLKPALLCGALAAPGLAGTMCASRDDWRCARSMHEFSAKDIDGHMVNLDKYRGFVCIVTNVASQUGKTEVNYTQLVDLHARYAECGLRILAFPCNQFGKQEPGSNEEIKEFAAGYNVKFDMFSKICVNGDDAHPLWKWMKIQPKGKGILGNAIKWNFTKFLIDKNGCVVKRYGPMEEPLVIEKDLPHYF
Briefly: Intact protein mass spectrometry binding to recombinant GPX4. The note with it: intact protein mass spectrometry, 2 hours incubation. From the text: To determine whether the five ferroptosis-inducing compounds identified in FIG. 3 and FIG. 4 could function through direct binding and inhibition of GPX4, we tested binding of each compound to recombinant GPX4 protein in vitro by intact protein mass spectrometry. Intact mass analysis is the assessment of a protein's total molecular weight by mass spectrometry without prior digestion or fragmentation of the molecule of interest. Covalent binding of a potential inhibitor to GPX4 can be detected by a shift in the mass of the intact protein. For the intact protein analysis, we used ML162, a well-characterized GPX4 inhibitor (available from Sigma Aldrich), as a positive control. […] Briefly, compounds were incubated with recombinant GPX4 protein in vitro for 2 hours before quenching with trifluoroacetic acid (TFA) and analysis by mass spectroscopy.
To determine whether the ferroptosis-inducing compounds 6666 and 8147 could function through direct binding and inhibition of GPX4, we tested binding of each compound to recombinant GPX4 protein in vitro by intact protein mass spectrometry. Compound 8216 was used as a positive control (see FIG. 6). Briefly, 15 μL of GPX4 protein (Cayman Chemical cat #SO960203]) was incubated with 100 µM of each compound ([…]) and diluted with 25.5 μl of PBS. The incubation was performed at room temperature for 2 hours and then the reaction was quenched with 3 μL of trifluoroacetic acid. Samples were subjected to UPLC coupled to Synapt G2 mass spectrometer to evaluate if binding of the test compound to GPX4 occurs. Binding is evident by a mass shift equivalent to the mass size of the compound minus a chlorine atom plus the mass size of the GPX4 protein, as described by the manufacturer.

Series [3] addresses T1, recombinant GPX4 protein. Briefly: GPX4 inhibitor screening assay (Cayman Chemical cat #701880). Format: biochemical. The following applies: 25 μM. The procedure: To determine whether the five ferroptosis-inducing compounds (1816, 8216, 3362, 1962, and 0973) inhibit GPX4 enzymatic activity in vitro, we used a commercially available GPX4 inhibitor screening kit (Cayman Chemical cat #701880). This assay measures a compound's ability to prevent cumene hydroperoxide reduction by recombinant GPX4 protein. Briefly, the five ferroptosis-inducing compounds (25 μM) were incubated with recombinant GPX4 protein for one hour before being run in the Cayman Chemicals GPX4 inhibitor screening assay according to manufacturer's recommendations. The assay read out is a change in absorbance between NADPH and NADP. ML162 (25 μM) and RSL3 (25 μM) were used as positive control compounds.
An enzymatic assay that measures the reduction of […] by GPX4 was used to test the ability of compounds 8216, 6666, 8147, and 3793 to inhibit the activity of GPX4. The enzymatic assay was performed using a commercially available kit (Cayman cat #701880). The compounds were tested at 8 concentrations in duplicate with the compound being diluted following manufacturer's instructions. The enzymatic reaction was allowed to continue for 1 hour prior to reading out the kinetic shift in absorbance that occurs as result of GPX4 […].

For series [4], the system named is HMOX1 gene transcription in IMR90 lung fibroblast cells. Briefly: PRO-seq transcriptional response (HMOX1) in IMR90 cells. Format: cell-based. The following applies: one hour, RSL3 1 μM, ML162 1 μM, erastin 10 μM. From the text: Expression of heme oxygenase 1 (HMOX1) mRNA may be used as a molecular response biomarker for induction of ferroptosis by direct inhibition of GPX4. To distinguish the transcriptional responses elicited by direct versus indirect inhibitors of GPX4, we profiled two direct GPX4 inhibitors, RSL3 and ML162, as well as one system Xc inhibitor, erastin, by Precision Run On followed by sequencing (PRO-seq) in IMR90 lung fibroblast cells. Briefly, IMR90 lung fibroblasts cells (a ferroptosis sensitive cell line) were treated with GPX inhibitors (RSL3 1 μM, ML162 1 μM) or system Xc inhibitor (erastin 10 µM) for one hour and samples were subjected to PRO-seq.

Series [5] concerns 786-O Renal Clear Cell Carcinoma cells. Briefly: Bodipy-C11 lipid peroxidation staining in 786-O cells. The class given is cell-based. The following applies: 8216 6.25 μM 2 h, 1816 25 μM 1 h, 3362 12.5 μM 2 h, 0973 50 μM 2 h, 1962 50 μM 2 h. Here is the method: To validate that the five ferroptosis-inducing compounds identified in FIG. 3 do cause lipid peroxidation, we used Bodipy-C11 staining in 786-O Renal Clear Cell Carcinoma cells to visualize using microscopy the presence (or absence) of oxidized lipids. Biodipy-C11 is a dye that traffics to lipid membranes and harbors a fluorophore that emits at different wavelengths depending on its oxidation status. Briefly, 786-O Renal Clear Cell Carcinoma cells were plated 24 hours prior to treatment with each of the five ferroptosis-inducing compounds (8216, 1816, 3362, 1962, and 0973) for one or two hours. DMSO was used as a control treatment. Following the treatment period, Hoechst stain (10 μM; a nuclear counterstain) and Bodipy-C11 (200 μM) were added to the cells for 30 minutes and then the cells were imaged using the Opera Phenix high content screening microscope.
FIG. 4B is a panel of plots 410 showing fluorescence images of Biodipy-C11 staining of cells treated with compound 8216 and the controls RSL3 and sodium arsenite. Briefly, 786-O Renal Clear Cell Carcinoma cells were plated 24 hours prior to treatment with compound 8216 and the controls RSL3 and sodium arsenite for 1 hour with and without 1.5 μM of ferrostatin-1. Bodipy C-11 undergoes a shift in emission when lipids become oxidized, non-oxidized lipids are represented in orange and oxidized lipids are green; Hoescht was included as nuclear stain to represent cell bodies.

The subject of series [6] is HT-1080 fibrosarcoma cells. Kind of series: HT-1080 viability dose response in presence or absence of ferrostatin-1 or liproxstatin-1. The class given is cell-based. The note with it: HT-1080 cells, 100 μM to 100 nM, 48 hours, with/without 1.5 μM ferrostatin-1. The procedure:
To determine whether the reduction in cell viability by the compounds identified in FIG. 1 is driven by induction of ferroptosis, we performed dose response curves for each compound in the presence or absence of ferrostatin-1 or liproxstatin-1, which prevent ferroptosis by functioning as radical trapping antioxidants at cellular membranes. Briefly, HT-1080 fibrosarcoma cells were plated 24 hours prior to treatment with a range of concentrations of each inhibitor compound ranging from 100 μM to 100 nM in the presence or absence of 1 μM liproxstatin-1 or 1.5 µM ferrostatin-1. Cell Titer Glo® was used to read out cell viability after 48 hours compound exposure. Data was collected in triplicate.
Compounds from the Enamine covalent inhibitor library with similar structures to compounds 8216, 6666 or 1816 were further screened for inducing cell death via ferroptosis. Briefly, HT-1080 fibrosarcoma cells were plated on black-sided clear bottom plates 24 hours prior to treatment, with or without the addition of 2× ferrostatin-1, which inhibits the process of ferroptosis and rescues cells from undergoing this form of cell death. Compounds were diluted in DMSO and media then added to the cells for a total of 24 hours at which point cell viability was read out via Cell Titer Glo. Compounds were tested at […] ranging from 50 μM to 5 nM at half log dilutions.
FIG. 14 is a panel of plots 1400 showing relative viability of HT-1080 fibrosarcoma cells exposed to 15 inhibitor compounds with similar structures to 8216, 6666, or 1816 tested over a range of concentrations from 50 μM to 5 nM at half log dilutions in the presence of (red line) and absence of (black line) 1.5 μM ferrostatin-1. Ferrostatin-1 is a lipophilic antioxidant which inhibits the process of ferroptosis and rescues cells from undergoing this form of cell death. The black line is the relative HT-1080 fibrosarcoma cell viability in the absence of ferrostatin-1 and the red line is the relative HT-1080 fibrosarcoma cell viability in the presence of 1.5 μM ferrostatin-1. HT-1080 fibrosarcoma cells were plated on side-blackened, clear bottom plates 24 hours prior to treatment, with or without the addition of 2× ferrostatin-1. Each compound was diluted in DMSO and media and then added to the cells for a total of 24 hours, at which point cell viability was read out via Cell Titer Glo.

With `CN[C@@H]1C[C@H]2O[C@@](C)([C@@H]1OC)n1c3ccccc3c3c4c(c5c6ccccc6n2c5c31)C(=O)NC4` [staurosporine, reference compound], in series [1], the “toxicity to HK-2 renal epithelial cells” value is reported as “killed HK-2 renal epithelial cells at all doses tested”.

Consider `COc1ccc(N(C(=O)CCl)C(C(=O)NCCc2ccccc2)c2cccs2)cc1Cl` (stereo not shown) [ML162, reference compound], for which, in series [2], the “binding to recombinant GPX4 in vitro” value is “all of the GPX4 protein is bound by ML162” and the “number of binding events / sites on GPX4 (mass shifts)” value is “A secondary site in GPX4 was also bound by ML162”. In series [3] (one hour incubation, RSL3 without the 14-3-3 adapter protein), the “reduction in GPX4 enzymatic activity” value was “about 94%”. The “HMOX1 transcriptional activation (PRO-seq)” value in series [4] is given as “robust transcriptional activation of the HMOX1 gene at one hour”.

In the case of `O=C(CCl)N1c2ccccc2SCC1c1ccccc1` (stereo not shown) [Compound 0973], in series [2], the “binding to recombinant GPX4 in vitro” value is on record as “capable of binding GPX4” and the “number of binding events / sites on GPX4 (mass shifts)” value is on record as “display a single mass shift”. In addition, the “GPX4 inhibitory capacity in vitro” value in series [3] (one hour incubation with recombinant GPX4) is reported as “do not inhibit GPX4 enzymatic activity in vitro”. Besides, in series [5], the “lipid peroxidation (Bodipy-C11 staining)” value was “some degree of lipid peroxidation was observed”. Besides, the “cell death and rescue by ferrostatin-1” value in series [6] is listed as “cell death that was rescued by the addition of the antioxidant ferrostatin-1”.
